Results reported in patent publication US20080090805A1, “CB-1 MODULATING COMPOUNDS AND THEIR USE” (ACADIA PHARMACEUTICALS INC., priority 2005, published 2008).

Target: native CB1 receptors (Rattus norvegicus, UniProt P20272)
Assay: CB1 receptor rat binding assay ([3H]SR141716A, rat brain membranes)
Conditions: rat brain membranes, [3H]SR141716A; for Ki: read-out: Binding rat pKi (converted)

Sequence of native CB1 receptors (P20272 whole entry): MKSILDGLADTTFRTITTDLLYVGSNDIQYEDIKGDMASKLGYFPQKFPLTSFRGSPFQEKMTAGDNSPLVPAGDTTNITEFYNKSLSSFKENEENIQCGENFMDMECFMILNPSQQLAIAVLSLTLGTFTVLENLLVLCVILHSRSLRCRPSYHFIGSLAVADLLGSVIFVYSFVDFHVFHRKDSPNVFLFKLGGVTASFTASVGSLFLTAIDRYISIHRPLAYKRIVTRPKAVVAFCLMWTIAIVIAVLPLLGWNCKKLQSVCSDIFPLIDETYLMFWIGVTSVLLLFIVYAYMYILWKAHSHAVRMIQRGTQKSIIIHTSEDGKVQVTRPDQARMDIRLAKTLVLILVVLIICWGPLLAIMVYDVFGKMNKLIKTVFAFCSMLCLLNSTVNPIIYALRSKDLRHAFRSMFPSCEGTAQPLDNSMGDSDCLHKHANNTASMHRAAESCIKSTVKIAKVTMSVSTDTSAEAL

SMILES	Binding rat Inh % [%]	Ki [nM]
COc1ccc(C2=Nc3cc(C(=O)NCc4ccncc4)ccc3Sc3ccccc32)cc1 [drawing 1412]	67	39.8
O=C(NCCc1ccc(Cl)cc1)c1ccc2c(c1)N=C(N1CCC(F)CC1)c1ccccc1S2 [drawing 1195]		12.6
O=C(NN1CCCCC1)c1ccc2c(c1)N=C(c1cccc(Cl)c1)c1ccccc1S2 [drawing 1380]	79	31.6
Cc1ccsc1C1=Nc2cc(C(=O)NC(C)C)ccc2Sc2ccccc21 [drawing 1478]	60	63.1
CC(C)CNC(=O)c1ccc2c(c1)N=C(c1ccc(Cl)cn1)c1ccc(Cl)cc1S2 [drawing 1506]	90	79.4
CCCCNC(=O)c1ccc2c(c1)N=C(c1ccc(Cl)cc1)c1cc(Cl)ccc1S2 [drawing 1464]	78	7.94
O=C(NN1CCCCC1)c1ccc2c(c1)N=C(c1ccc(Cl)c(F)c1)c1ccccc1S2 [drawing 1394]	87	5.01
O=C(NCc1cccc(Cl)c1)c1ccc2c(c1)N=C(c1ccc(Cl)cc1)c1cc(F)ccc1S2 [drawing 1456]		7.94
O=C(NC1CCC(F)(F)CC1)c1ccc2c(c1)N=C(c1cccc(Cl)c1)c1ccccc1S2 [drawing 1242]	79	1
Cc1ccc(CNC(=O)c2ccc3c(c2)N=C(c2ccc(F)cc2)c2ccccc2S3)o1 [drawing 1239]	108	0.794
COc1ccc(C2=Nc3cc(C(=O)NC4CCCCC4)ccc3Sc3ccccc32)cc1 [drawing 1282]	91	2
O=C(NCc1cccs1)c1ccc2c(c1)N=C(c1ccccn1)c1ccccc1S2 [drawing 1381]	109	31.6
CCCCNC(=O)c1ccc2c(c1)N=C(c1sccc1C)c1ccccc1S2 [drawing 1244]	103	15.8
CCCNC(=O)c1ccc2c(c1)N=C(c1ccc(F)cc1)c1ccccc1S2 [drawing 1262]	87	20
CCCNC(=O)c1ccc2c(c1)N=C(c1ccc(OC)cc1)c1ccccc1S2 [drawing 1403]	80	39.8
CCOC(=O)N1CCC(NC(=O)c2ccc3c(c2)N=C(C2CCCCC2)c2ccccc2S3)CC1 [drawing 1517]		10
CCCCNC(=O)c1ccc2c(c1)N=C(c1cccc(F)c1)c1ccccc1S2 [drawing 1498]	82	10
COc1ccc(C2=Nc3cc(C(=O)NN4[C@H](C)CCC[C@@H]4C)ccc3Sc3ccccc32)cc1 [drawing 1432]	88	6.31
Cc1ccsc1C1=Nc2cc(C(=O)NC3CCCCC3)ccc2Sc2ccccc21 [drawing 1531]	72	10
O=C(NCc1ccc(F)cc1)c1ccc2c(c1)N=C(C1CCCCC1)c1ccccc1S2 [drawing 1336]		3.98
O=C(NCCc1cccc(Cl)c1)c1ccc2c(c1)N=C(c1ccc(Cl)cc1)c1ccccc1S2 [drawing 1283]		20
O=C(NCCc1cccc(Cl)c1)c1ccc2c(c1)N=C(N1CCCCC1)c1ccccc1S2 [drawing 1222]		15.8
O=C(NCCc1ccccc1)c1ccc2c(c1)N=C(c1cccc(Cl)c1)c1ccccc1S2 [drawing 1322]		3.16
CCCNC(=O)c1ccc2c(c1)N=C(c1cccc(F)c1)c1ccccc1S2 [drawing 1286]	84	20

SMILES	Binding rat Inh % [%]	Ki [nM]
CCCCNC(=O)c1cnc2c(n1)N=C(c1ccccc1)c1ccccc1S2 [drawing 1534]	88	12.6
O=C(NCc1cccc(Cl)c1)c1ccc2c(c1)N=C(c1ccc(F)cc1)c1ccccc1[S+]2[O-] (centres unmarked) [drawing 1390]		31.6
Cc1cccc(C2=Nc3cc(C(=O)NC4CCC(F)(F)CC4)ccc3Sc3ccccc32)n1 [drawing 1425]	90	6.31
CC(C)CCNC(=O)c1ccc2c(c1)N=C(c1ccccc1Cl)c1ccccc1S2 [drawing 1188]	116	12.6
Cc1ccc(CNC(=O)c2ccc3c(c2)N=C(c2ccc(Cl)cc2)c2ccccc2S3)o1 [drawing 1416]	88	6.31
O=C(NCCC(F)(F)F)c1ccc2c(c1)N=C(c1ccc(Cl)cc1F)c1ccccc1S2 [drawing 1377]	97	5.01
O=C(NCc1cccnc1)c1ccc2c(c1)N=C(c1cccc(F)c1)c1ccccc1S2 [drawing 1221]	84	15.8
CCN(CCNC(=O)c1ccc2c(c1)N=C(C1CCCCC1)c1ccccc1S2)c1ccccc1 [drawing 1296]		2.51
O=C(NCc1cccc(Cl)c1)c1ccc2c(c1)N=C(c1ccccc1F)c1ccccc1S2 [drawing 1510]		10
O=C(NN1CCCCCC1)c1ccc2c(c1)N=C(c1ccc(Cl)cc1F)c1ccccc1S2 [drawing 1386]	84	5.01
Cc1ccsc1C1=Nc2cc(C(=O)NCCC(F)(F)F)ccc2Sc2ccccc21 [drawing 1198]	103	12.6
O=C(NN1CCCCC1)c1ccc2c(c1)N=C(N1CCCCC1)c1ccccc1S2 [drawing 1397]		39.8
O=C(NCCc1cccc(Cl)c1)c1ccc2c(c1)N=C(c1ccc(F)cc1)c1ccccc1S2 [drawing 1179]		12.6
O=C(NCc1cccc(Cl)c1)c1ccc2c(c1)N=C(c1cccc(Cl)c1)c1cc(F)ccc1S2 [drawing 1375]		5.01
O=C(NCc1cccc(Cl)c1)c1ccc2c(c1)N=C(N1CCCCC1)c1ccccc1S2(=O)=O [drawing 1428]		50.1
O=C(NCCc1ccncc1)c1ccc2c(c1)N=C(c1ccc(F)cc1)c1ccccc1S2 [drawing 1220]	103	15.8
CC(CNC(=O)c1ccc2c(c1)N=C(c1ccc(Cl)cc1)c1cc(F)ccc1S2)c1ccccc1 (centres unmarked) [drawing 1524]		10
Cc1ccsc1C1=Nc2cc(C(=O)NN3CCCCC3)ccc2Sc2ccccc21 [drawing 1182]	59	12.6
O=C(NCCc1ccccn1)c1ccc2c(c1)N=C(c1cccc(Cl)c1)c1ccccc1S2 [drawing 1475]	76	63.1
CC(C)NC(=O)c1ccc2c(c1)N=C(c1ccc(Cl)s1)c1ccccc1S2 [drawing 1445]	85	50.1
CCCCNC(=O)c1ccc2c(c1)N=C(C1CCCCC1)c1ccccc1S2 [drawing 1417]		6.31
CCCCNC(=O)c1ccc2c(c1)N=C(c1ccccc1)c1ccccc1S2 [drawing 1300]		20
O=C(NCc1cccc(Cl)c1)c1ccc2c(c1)N=C(N1CCCCC1)c1cc(F)ccc1S2 [drawing 1181]		12.6
Cc1ccc(CNC(=O)c2ccc3c(c2)N=C(c2cccc(Cl)c2)c2ccccc2S3)o1 [drawing 1231]	85	0.631

SMILES	Binding rat Inh % [%]	Ki [nM]
O=C(NNCC(F)(F)F)c1ccc2c(c1)N=C(c1ccc(Cl)cc1)c1ccccc1S2 [drawing 1488]	70	10
O=C(NCc1cccs1)c1ccc2c(c1)N=C(c1ccccc1F)c1ccccc1S2 [drawing 1227]	94	15.8
CCCCNC(=O)c1ccc2c(c1)N=C(c1ccc(Cl)s1)c1ccc(Cl)cc1S2 [drawing 1480]	90	10
CC(NC(=O)c1ccc2c(c1)N=C(c1ccc(F)cc1)c1ccccc1S2)c1ccccc1 (centres unmarked) [drawing 1471]		7.94
CCN(CCNC(=O)c1ccc2c(c1)N=C(c1ccccc1F)c1ccccc1S2)c1ccccc1 [drawing 1302]		20
O=C(NC1CCCC1)c1ccc2c(c1)N=C(c1ccc(Cl)s1)c1ccccc1S2 [drawing 1542]	91	12.6
Cc1ccsc1C1=Nc2cc(C(=O)NCc3cccs3)ccc2Sc2ccccc21 [drawing 1344]	99	3.98
O=C(NCCc1cccnc1)c1ccc2c(c1)N=C(c1ccc(Cl)c(Cl)c1)c1ccccc1S2 [drawing 1407]	103	6.31
CCCC1=Nc2cc(C(=O)NCc3ccc(F)cc3)ccc2Sc2ccccc21 [drawing 1529]		79.4
O=C(NCc1ccco1)c1ccc2c(c1)N=C(c1ccccc1F)c1ccccc1S2 [drawing 1435]	83	50.1
O=C(NCCc1cccnc1)c1ccc2c(c1)N=C(c1cccc(Cl)c1)c1ccccc1S2 [drawing 1293]	97	20
O=C(NCc1ccccc1Br)c1ccc2c(c1)N=C(N1CCCCC1)c1ccccc1S2 [drawing 1275]		20
O=C(NCc1ccccc1Br)c1ccc2c(c1)N=C(C1CCCCC1)c1ccccc1S2 [drawing 1392]		5.01
Cc1csc(CNC(=O)c2ccc3c(c2)N=C(c2cccc(C)n2)c2ccccc2S3)c1 [drawing 1263]	94	1.58
CCCCNC(=O)c1ccc2c(c1)N=C(N1CCCCC1)c1ccccc1S2 [drawing 1325]		25.1
CC(CNC(=O)c1ccc2c(c1)N=C(c1cccc(Cl)c1)c1cc(F)ccc1S2)c1ccccc1 (centres unmarked) [drawing 1196]		12.6
COCCNC(=O)c1ccc2c(c1)N=C(c1cccc(Cl)c1)c1ccccc1S2 [drawing 1461]	80	50.1
O=C(NN1CCCC1)c1ccc2c(c1)N=C(c1ccc(Cl)cc1)c1ccccc1S2 [drawing 1502]	63	63.1
CC(C)CCNC(=O)c1ccc2c(c1)N=C(c1cccc(F)c1)c1ccccc1S2 [drawing 1240]	99	0.794
CC(C)CNC(=O)c1ccc2c(c1)N=C(c1ccc(Cl)s1)c1ccc(F)cc1S2 [drawing 1359]	95	3.98
CCOC(=O)N1CCC(NC(=O)c2ccc3c(c2)N=C(c2ccc(Cl)cc2)c2ccccc2S3)CC1 [drawing 1548]		12.6
O=C(NCc1cccc(Cl)c1)c1ccc2c(c1)N=C(C1CCCCC1)c1ccccc1S2 [drawing 1338]		3.98
